Article PMC8097023, “Structures of a non-ribosomal peptide synthetase condensation domain suggest the basis of substrate selectivity” (Nature Communications, 2021)

Key:
[1] = biological target: T1, PCP2-C3 didomain of fuscachelin NRPS FscG (Thermobifida fusca, UniProt Q47NR9, R2577G); experiment: X-ray crystal structure, […] Å; assay type: binding; conditions: covalent; PPant on S2514 of PCP2, fully extended through the acceptor channel into the C3 active site
T1 construct: gene Tfu_1867; PCP2-C3 didomain fragment; C3 = residues 2558-2999, PPant site S2514; His-SUMO tag (pOPIN-S) cleaved; made in E. coli BL21(DE3) entD-; monomeric, two copies in the asymmetric unit, PCP2 at the acceptor site of the other chain
T1 sequence (Q47NR9 entry or part of it R2577G): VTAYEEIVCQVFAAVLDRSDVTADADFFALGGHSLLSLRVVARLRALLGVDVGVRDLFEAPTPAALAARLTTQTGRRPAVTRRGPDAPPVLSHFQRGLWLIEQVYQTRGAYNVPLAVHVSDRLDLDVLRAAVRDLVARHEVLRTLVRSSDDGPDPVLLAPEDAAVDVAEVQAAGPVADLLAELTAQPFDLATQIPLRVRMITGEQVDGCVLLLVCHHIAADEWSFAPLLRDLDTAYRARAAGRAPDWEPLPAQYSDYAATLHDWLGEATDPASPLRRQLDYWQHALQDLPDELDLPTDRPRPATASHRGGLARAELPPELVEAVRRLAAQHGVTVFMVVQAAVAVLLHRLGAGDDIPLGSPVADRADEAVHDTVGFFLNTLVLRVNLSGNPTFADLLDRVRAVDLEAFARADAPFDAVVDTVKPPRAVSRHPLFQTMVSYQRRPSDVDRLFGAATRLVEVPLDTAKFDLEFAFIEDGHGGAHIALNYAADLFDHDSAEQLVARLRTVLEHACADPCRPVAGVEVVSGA

[2] = biological target: T2, PCP2-C3 didomain of fuscachelin NRPS FscG (Thermobifida fusca, UniProt Q47NR9); experiment: X-ray crystal structure, […] Å; assay type: binding; conditions: covalent; PPant on S2514 of PCP2; arm at C3 acceptor entrance, kept out of the active site by R2577
T2 construct: gene Tfu_1867; PCP2-C3 didomain fragment; C3 = residues 2558-2999, PPant site S2514; His-SUMO tag (pOPIN-S) cleaved; made in E. coli BL21(DE3) entD-; monomeric, two copies in the asymmetric unit, PCP2 at the acceptor site of the other chain
T2 sequence (Q47NR9 2481-3008): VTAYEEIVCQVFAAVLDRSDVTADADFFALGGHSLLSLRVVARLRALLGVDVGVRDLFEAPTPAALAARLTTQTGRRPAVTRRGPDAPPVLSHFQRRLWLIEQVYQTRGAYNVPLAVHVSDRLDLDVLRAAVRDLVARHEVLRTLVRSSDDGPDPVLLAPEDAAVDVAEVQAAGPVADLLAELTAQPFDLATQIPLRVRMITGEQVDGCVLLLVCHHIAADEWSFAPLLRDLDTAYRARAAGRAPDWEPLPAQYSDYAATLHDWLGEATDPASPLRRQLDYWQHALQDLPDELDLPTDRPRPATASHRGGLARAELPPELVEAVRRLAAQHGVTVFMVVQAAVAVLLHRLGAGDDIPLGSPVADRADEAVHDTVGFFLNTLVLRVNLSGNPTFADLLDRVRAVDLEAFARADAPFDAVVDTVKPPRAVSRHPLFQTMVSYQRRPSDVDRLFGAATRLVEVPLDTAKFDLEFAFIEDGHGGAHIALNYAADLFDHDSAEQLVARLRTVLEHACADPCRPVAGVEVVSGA

Compound: CC(C)(COP(=O)(O)O)[C@@H](O)C(=O)NCCC(=O)NCCS [PPant]
- X-ray crystal structure, 2 Å [1]: PPant moiety, which now fully extends thought the acceptor channel into the active site
- X-ray crystal structure, 2.2 Å [2]: Having confirmed the presence of a PPant arm, we modeled this into the electron density
